Consider six molecules from paper PMC6154603, “Study on the Rationality for Antiviral Activity of Flos Lonicerae Japonicae-Fructus Forsythiae Herb Couple Preparations Improved by Chito-Oligosaccharide via Integral Pharmacokinetics” (Molecules : A Journal of Synthetic Chemistry and Natural …, 2017).

One series concerns influenza A virus (H1N1). The series can be described thus: microbe, parasite or virus in culture. The series is classed as cell-based. The settings on record: for IC50: Influenza A virus, H1N1, MDCK, tested 0.0625-1.0000 mM, unit inferred, read-out: IC50 (anti-viral activity).
Series [1] is described as follows: Pharmacokinetics of caffeic acid derivatives after oral administration of the FLJ-FF herb couple. Also noted: species or system rats. The settings on record: rat, in vivo. On the procedure: The pharmacokinetics of caffeic acid derivatives in the FLJ-FF herb couple was studied in our previous study. Integral concentrations at each time point for the eight components were calculated based on the AUC-weighting method. The weighting coefficient for each component was calculated using Equations (4) and (5). […] AUC was determined using GraphPad Prism for Windows, version 5 (Graph Pad Software Inc., San Diego, CA, USA). […] Subsequently, plasma was prepared by centrifugation at 1816× g for 7 min and immediately analyzed or stored at −70 °C for further analysis after being mixed with 10 μL of 5% formic acid. The treatment and UPLC-ESI-MS/MS analysis for samples have been studied previously.

A short description of series [2]: In vivo pharmacokinetic study of FLJ-FF herb couple preparations with or without COS. The settings on record: rat, po. Set-up: species or system rats. The source says:
The rats were administrated product A and A4 at the dosages of at the dosage of 32 g raw medicine per kilogram, product B and B4 at the dosage of 64 g raw medicine per kilogram, product C and C4 at the dosage of 48 g raw medicine per kilogram, and product D and D4 at the dosage of 160 g raw medicine per kilogram, respectively.

Another series concerns Caco-2 cell. The series is described as follows: In vitro Caco-2 cell transport model. The series is classed as in vitro ADME, human. The settings on record: Shuang-Huang-Lian, with 0.1% (w/v) of COS vs control. From the text: The protocol of Caco-2 cell study was shown previously.
For series [3], the system named is influenza virus strain, A/PR8/34 (H1N1). The format is cell-based. The settings on record: compared with PBS group; ribavirin 20 mg/kg orally as positive control; Figure S1.

Regarding `O=C(/C=C/c1ccc(O)c(O)c1)O[C@@H]1C[C@](O)(C(=O)O)C[C@@H](O)[C@H]1O` [Chlorogenic acid], in the series on influenza A virus (H1N1), the “antiviral activity, folds lower than that of forsythoside A” value amounted to 2.47 folds and the IC50 stood at 754 µM. For the same molecule, in series [1], the AUC(0-inf) was 3160 ng·h/mL, the AUC(0-t) is 3220 ng·h/mL, the Cmax was 2500 ± 438 ng/mL and the MRT last was 4.74 h. This molecule displayed a half-life in series [1] of 3.9 ± 0.699 h. Further, the AUC in series [2] (25 mg/kg, AUC (Absorption Enhancer)) is 968 ng·h/mL. The molecule further gave an AUC in series [2] (AUC (Control)) of 638 ng·h/mL.
As to `O=C(C=Cc1ccc(O)c(O)c1)OC1CC(O)(C(=O)O)CC(O)C1O` (stereo not drawn) [Neochlorogenic acid], the IC50 in the series with influenza A virus (H1N1) was found to be 722 µM. In series [1], this molecule gave an AUC(0-inf) of 715 ng·h/mL, an AUC(0-t) of 579 ng·h/mL, a Cmax of 575 ± 170 ng/mL and an MRT last of 5.3 h. In series [1], the Tmax is 0.167 h and the half-life was determined as 3.49 ± 0.423 h.
With `O=C(C=Cc1ccc(O)c(O)c1)OC1C(O)CC(O)(C(=O)O)CC1O` (stereo not drawn) [Cryptochlorogenic acid, cryptochlorogenic acid], the IC50 in the series with influenza A virus (H1N1) amounted to 735 µM. In series [1], this molecule showed an AUC(0-inf) of 726 ng·h/mL, an AUC(0-t) of 713 ng·h/mL, a Cmax of 950 ± 201 ng/mL and an MRT last of 4.84 h. Also, in series [1], the Tmax was 0.167 h and the half-life came out at 4.64 ± 1.03 h. In addition, in the series on Caco-2 cell, the “highest Papp-value increase” value came to 3.13 fold.
With `O=C(/C=C/c1ccc(O)c(O)c1)O[C@@H]1C[C@](O)(C(=O)O)C[C@@H](OC(=O)/C=C/c2ccc(O)c(O)c2)[C@H]1O` [3,5-dicaffeoylquinic acid], the IC50 with influenza A virus (H1N1) was 393 µM. In series [1], this molecule gave an AUC(0-inf) of 54.2 ng·h/mL, an AUC(0-t) of 53.1 ng·h/mL, a Cmax of 70.5 ± 28.1 ng/mL and an MRT last of 6.39 h. Besides, in series [1], the Tmax worked out at 0.1667 ± 0 h and the half-life turned out to be 5.95 ± 0.559 h. Also, in series [2] (AUC (Control)), the AUC was 57.7 ng·h/mL. Besides, the “highest Papp-value increase” value in the series with Caco-2 cell turned out to be 8.66 fold.
Take `O=C(C=Cc1ccc(O)c(O)c1)OC1CC(O)(C(=O)O)CC(O)C1OC(=O)C=Cc1ccc(O)c(O)c1` (stereo not drawn) [3,4-dicaffeoylquinic acid]: the half-maximal inhibitory concentration (IC50) in the series with influenza A virus (H1N1) came out at 401 µM. Further, in series [1], the AUC(0-inf) was 213 ng·h/mL, the AUC(0-t) is 141 ng·h/mL, the Cmax came out at 66.7 ± 15.4 ng/mL and the MRT last was 7.6 h. Moreover, in series [1], the Tmax is 0.167 h and the half-life worked out at 9.18 ± 0.649 h. In the series with Caco-2 cell, the “highest Papp-value increase” value stood at 5.86 fold.
As for `NC(=O)c1ncn([C@@H]2O[C@H](CO)[C@@H](O)[C@H]2O)n1` [ribavirin], the “inhibition rate on influenza virus” value in series [3] was “remarkable increase”.
